Test results as given in US8748117B2, “Probe for detection and quantification of nitric oxide, and method for detecting and quantifying nitric oxide using the same” (Japan Science and Technology Agency, priority 2004, dated 2014).
“Also recorded” adds a separate entry of the source.

Assays:
[1] = test system: CHO-K1 cells expressing NOA-1; experiment: CFP/YFP emission ratio of NOA-1 in CHO-K1 cells upon NOC-7 / NO stimulation; format: cell-based
Protocol: cDNAs respectively expressing the hybrid proteins were constructed. The hybrid proteins respectively comprise cGMP-visualization probe (hereinafter described as CGY) connected with C-terminus of sGCα or sGCβ through the linker of SEC ID NO.1 (GGEQKLISEEDLLESR). The CYG was prepared according to the method in Patent documents 1 and 2. The heterodimmer of the hybrid proteins was named as “NOA-1” (fluorescent indicator for NO with a signal amplifier) (FIGS. 2A and B). At N-terminus of NOA-1, FLAG tag of SEC ID NO.2 (MDYKDDDDK) may be attached.
(§1) Two cDNAs were introduced into CHO K1 cells having little amount of endogenous sGC thereby coexpressing both sGCα-CGY and sGCβ-CGY in the cells.
In the same manner as in Example 1, both sGCα-CGY and sGCβ-CGY were coexpressed in CHO-K1 cells.
In the same manner as in Example 1, the CHO-K1 cells coexpressed with both sGCα and sGCβ were stimulated with various amount of NOC-7 to measure the changes of CFP/YFP emission ratio dependent to NO concentrations (FIG. 6).
In the same manner as in Example 1, the CHO-K1 cells expressing NOA-1 were stimulated with various amount of NOC-7 to measure the changes of CFP/YFP emission ratio by NO and 8-Br-cGMP stimulations (FIGS. 7A and 7B).
The NO-dependent FRET response of NOA-1 was confirmed by using NO solutions prepared by bubbling NO gas. […] Importantly, NOA-1 senses not only an increase in the NO concentration but also its removal by oxidation and/or volatilization. This NO-dependent reversible response of NOA-1 is caused by the reversible binding of NO to the heme group in NOA-1 and endogenous phosphodiesterases that immediately hydrolyze the generated cGMP molecules after the removal of NO.

[2] = test system: CHO-K1 cells expressed with sGCα-CGY or sGCβ-CGY; experiment: CFP/YFP emission ratio in CHO-K1 cells expressing sGCα-CGY or sGCβ-CGY alone; format: cell-based; conditions: subsequent addition of 2 mM 8-Br-cGMP after 50 nM NOC-7
[3] = test system: CHO-K1 cells expressed with NOA-1; experiment: Selectivity of NOA-1 FRET response (CO, natriuretic peptide, cAMP generation); format: cell-based; conditions: for CFP/YFP emission ratio of NOA-1: excess concentration, several cultured cell types including CHO-K1 cells
From the text: As to the selectivity of NOA-1, the FRET response of NOA-1 for carbon monoxide (CO) was examined.
CO is a sGC activator but has a lower affinity with sGC than NO. In addition, the CO-bound sGC is known to have much lower cyclase activity than NO-bound sGC because of each different coordination to the heme iron. Physiologically generated CO thus appears not to affect the response of NOA-1.
Effect of natriuretic peptide stimulation or cAMP generation on the FRET response of NOA-1 was examined.

[4] = test system: nitric oxide synthase (NOS); experiment: NOS inhibitor effect on NOA-1 emission ratio in CHO-K1 cells; format: cell-based; conditions: 1 mM L-NAME
Protocol: (§2) (1) NOA-1 was expressed in endothelial cells from bovine pulmonary artery cultured in a serum-supplemented media. […] This is based on difference of basal NO concentration between CHO-K1 cell and vascular endothelial cell. (3) Endothelial cells and CHO-K1 cells were pretreated with an inhibitor for nitric oxide synthase (NOS), 1 mM L-NAME and the CFP/YFP emission ratio of NOA-1 was observed.

[5] = target: T1, nitric oxide synthase (NOS) (Bos taurus, UniProt P29473); experiment: NOS inhibitor effect on NOA-1 emission ratio in endothelial cells; format: cell-based, bovine; conditions: 1 mM L-NAME
T1 construct: endogenous in cells; host or cells: bovine pulmonary artery endothelial cells
T1 sequence (P29473 2-1205 limits assumed): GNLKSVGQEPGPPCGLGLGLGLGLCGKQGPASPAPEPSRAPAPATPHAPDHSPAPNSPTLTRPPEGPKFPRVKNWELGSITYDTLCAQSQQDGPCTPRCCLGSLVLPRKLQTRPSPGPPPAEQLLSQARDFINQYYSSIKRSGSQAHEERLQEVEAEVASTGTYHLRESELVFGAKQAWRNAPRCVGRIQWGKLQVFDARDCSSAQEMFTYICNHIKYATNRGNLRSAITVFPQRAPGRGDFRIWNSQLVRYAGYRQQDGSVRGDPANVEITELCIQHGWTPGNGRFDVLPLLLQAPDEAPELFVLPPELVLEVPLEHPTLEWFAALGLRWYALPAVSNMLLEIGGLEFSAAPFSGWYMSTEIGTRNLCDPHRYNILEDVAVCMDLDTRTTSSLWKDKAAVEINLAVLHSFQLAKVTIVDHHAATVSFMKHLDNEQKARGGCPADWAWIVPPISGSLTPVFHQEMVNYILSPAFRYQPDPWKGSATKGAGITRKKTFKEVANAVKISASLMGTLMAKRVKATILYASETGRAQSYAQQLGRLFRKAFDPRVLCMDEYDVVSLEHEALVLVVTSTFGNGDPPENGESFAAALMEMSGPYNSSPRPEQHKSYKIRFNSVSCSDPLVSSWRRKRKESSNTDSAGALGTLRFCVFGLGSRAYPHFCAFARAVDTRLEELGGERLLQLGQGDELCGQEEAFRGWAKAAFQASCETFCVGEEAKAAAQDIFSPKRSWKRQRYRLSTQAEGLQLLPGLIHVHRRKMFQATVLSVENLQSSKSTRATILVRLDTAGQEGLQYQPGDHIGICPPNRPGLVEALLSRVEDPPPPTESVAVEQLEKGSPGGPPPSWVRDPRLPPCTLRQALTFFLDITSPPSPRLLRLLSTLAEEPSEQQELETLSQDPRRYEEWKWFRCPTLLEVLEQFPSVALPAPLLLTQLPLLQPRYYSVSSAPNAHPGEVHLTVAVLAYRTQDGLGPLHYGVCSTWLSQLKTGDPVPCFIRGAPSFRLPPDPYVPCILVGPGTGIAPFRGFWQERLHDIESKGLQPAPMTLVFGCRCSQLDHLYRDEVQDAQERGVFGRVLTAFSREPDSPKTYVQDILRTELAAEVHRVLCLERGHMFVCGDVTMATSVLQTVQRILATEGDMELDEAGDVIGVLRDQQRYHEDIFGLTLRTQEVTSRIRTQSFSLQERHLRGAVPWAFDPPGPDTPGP
Protocol: as §2

[6] = test system: phosphatidyl inositol 3-kinase (PI(3)K); experiment: PI(3)K inhibitor effect on basal NO (NOA-1 emission ratio) in endothelial cells; format: cell-based, bovine
Protocol: The stable generation of the basal NO concentration was examined in vascular endothelial cells cultured in a serum-containing medium.
That is, the endothelial cells expressing NOA-1 was added with 100 μM LY 294002), and the CFP/YFP emission ratio was monitored for the NO concentrations in the cells.

[7] = test system: endothelial cells from bovine pulmonary artery; experiment: NOA-1 CFP/YFP emission ratio in vascular endothelial cells; format: cell-based
Protocol: as §2
(4) The response of NOA-1 for excess NOC-7 between the endothelial and CHO-K1 cells was compared.
We stimulated the endothelial and CHO-K1 cells with 10 μM NOC-7, which generates enough concentration of NO to immediately saturate the NOA-1 response. […] As a result, in endothelial cells, the obtained change in the emission ratio upon the excess NOC-7 stimulation was actually only one-third of that in CHO-K1 cells (FIG. 13B).
(§3) (6) The basal concentration of NO in each vascular endothelial cell was measured. We first inhibited endogenous eNOS with 1 mM L-NAME to remove the basal NO and cGMP generated by the basal NO. The CFP/YFP emission ratios before and after the inhibition of endogenous eNOS, respectively, represent the basal and zero concentrations of NO in each endothelial cell (FIG. 15). To quantitate the basal concentration of NO, we subsequently added various concentrations of NO to each endothelial cell, in which eNOS activity was inhibited with L-NAME. The peak response of NOA-1 was plotted at each concentration of NO. Based on the obtained dose-response of NOA-1 for various concentrations of NO, we measured 1 nM of the basal NO concentration generated in each endothelial cell.

sGC = experiment: Block of the NOC-7 response of NOA-1 by sGC inhibitor pretreatment in CHO-K1 cells; format: cell-based; conditions: cells pretreated with NS 2028 (100 μM, FIG. 3-b)
From the text: as §1

phosphodiesterases (PDE) = experiment: Effect of PDE inhibitor on NOA-1 emission ratio in CHO-K1 cells; format: cell-based
Protocol: as §1
The latter recovery of the decreased emission ratio disappeared when the cells were pretreated with an inhibitor of phosphodiesterases (PDE) that hydrolyses cGMP, zaprinast (FIG. 3-c).
as §3

phosphodiesterases = experiment: PDE inhibitor effect on NOA-1 emission ratio in endothelial cells; format: cell-based, bovine; conditions: 200 μM zaprinast; endothelial cells expressing NOA-1

For Nc1nc2c(nc(Br)n2[C@@H]2O[C@@H]3COP(=O)(O)O[C@H]3[C@H]2O)c(=O)[nH]1 [8-Br-cGMP], the “plateau response of CFP/YFP emission ratio” value ([1]; addition of 2 mM 8-Br-cGMP after 100 nM NOC-7) was “did not further decrease” and the CFP/YFP emission ratio [2] was “quick decrease”.

With [C-]#[O+] [CO, carbon monoxide] the “response of NOA-1 compared with that for 5 nM NO” value ([3]; 100 μM CO) was “transient but much smaller response” and the CFP/YFP emission ratio ([3]; CO up to 10 μM) was “no significant change”.

COC(=O)[C@@H](N)CCCNC(=N)N[N+](=O)[O-] [L-NAME] was tested, and the “CFP/YFP emission ratio of NOA-1” value [4] was “no significant change” and the “CFP/YFP emission ratio of NOA-1” value [5] was “gradually increased”.

In the case of O=c1cc(N2CCOCC2)oc2c(-c3ccccc3)cccc12 [LY 294002, 2-(4-morpholinyl)-8-phenyl-1(4H)-benzopyran-4-one], the “time to reach plateau of the emission ratio” value ([6]; 100 μM LY 294002) is reported as no more than 25 min, the emission ratio ([6]; 100 μM LY 294002, endothelial cells expressing NOA-1) is reported as “significantly increased” and the “effect on basal NO” value ([6]; endothelial cells, serum-containing medium) is reported as “removed the basal NO concentration; also recorded: inhibitory effect on basal NO generation”.

In the case of CNCCCNN(N=O)C(C)CO (stereo not drawn) [NOC-7, 3-(2-hydroxy-1-methylethyl-2-nitrosohydrazino)-N-methyl-1-propanamine], the CFP/YFP emission ratio ([1]; 1 nM or 5 nM NOC-7) is reported as “dose-dependent transient response; also recorded: NO-dependent transient change”, the CFP/YFP emission ratio ([1]; 10 nM NOC-7) is reported as “reaches a plateau and then slowly recovered to the initial level; also recorded: quick decrease” and the CFP/YFP emission ratio ([1]; 50 nM or 100 nM NOC-7) is reported as “did not show no recovery to the initial level even after 20 minutes”. For the same molecule, the CFP/YFP emission ratio ([1]; 100 nM NOC-7, after reaching the plateau) was “did not subsequently show significant recovery for at least 10 min”, the “CFP/YFP emission ratio response on repeated stimulation” value ([1]; second 5 nM NOC-7 stimulation after recovery to the initial value) was “same transient response” and the CFP/YFP emission ratio ([1]; stimulated with 5 nM NOC-7, CHO-K1 coexpressing sGCα-CGY and sGCβ-CGY) was “immediately decreased but gradually recovered up to the initial level”. The “change in the emission ratio upon excess NOC-7 in endothelial cells relative to CHO-K1 cells” value ([7]; 10 μM NOC-7) was “one-third” and the emission ratios ([7]; 10 μM NOC-7, endothelial and CHO-K1 cells) was “immediately decreased”.

For O=c1onc2n1-c1cc(Br)ccc1OC2 [NS 2028], the “transient change in the emission ratio by 5 nM NOC-7” value (sGC) was “completely blocked”.

With CC[C@H](C)[C@@H]1NC(=O)[C@H](CCCNC(=N)N)NC(=O)[C@H](CC(=O)O)NC(=O)[C@H](CCSC)NC(=O)[C@H](CCCNC(=N)N)NC(=O)CNC(=O)CNC(=O)[C@H](Cc2ccccc2)NC(=O)[C@@H](NC(=O)[C@H](CO)NC(=O)[C@H](CO)NC(=O)[C@H](CCCNC(=N)N)NC(=O)[C@H](CCCNC(=N)N)NC(=O)[C@H](CC(C)C)NC(=O)[C@@H](N)CO)CSSC[C@@H](C(=O)N[C@@H](CC(N)=O)C(=O)N[C@@H](CO)C(=O)N[C@@H](Cc2ccccc2)C(=O)N[C@@H](CCCNC(=N)N)C(=O)N[C@@H](Cc2ccc(O)cc2)C(=O)O)NC(=O)CNC(=O)[C@H](CC(C)C)NC(=O)CNC(=O)[C@H](CO)NC(=O)[C@H](CCC(N)=O)NC(=O)[C@H](C)NC(=O)CNC1=O [atrial natriuretic peptide] the “CFP/YFP emission ratio of NOA-1” value [3] was “no significant change”.

For CC(C)NCC(O)c1ccc(O)c(O)c1 (stereo not drawn) [isoproterenol], the “CFP/YFP emission ratio of NOA-1” value [3] was “no significant change”.

In the case of CCCOc1ccccc1-c1nc2nn[nH]c2c(=O)[nH]1 [zaprinast], the “latter recovery of the decreased emission ratio after 5 nM NOC-7” value (phosphodiesterases (PDE); cells pretreated with zaprinast (200 μM, FIG. 3-c)) is reported as “disappeared”, the emission ratio (phosphodiesterases (PDE); treatment with zaprinast, NOA-1 in CHO-K1) is reported as “no significant change” and the CFP/YFP emission ratio (phosphodiesterases) is reported as “gradually decreased and reached the saturation of NOA-1 response”.

“insulin: stimulation activates the PI(3)K-Akt pathway” was tested, and the “NO concentration in the endothelial cells” value ([7]; insulin stimulation) was “further increases the NO concentration”.
